From US20260356800A1, “POLYMORPH OF PHENYL PYRROLE HYDRAZINE CARBOXIMIDAMIDE COMPOUND” (SYNACT PHARMA ApS, priority 2022, published 2026)
Values after ≈ are worked out from the molar mass of the structure shown. Structures can show the parent of a compound that is named as a salt. Values belong to the compound of their own block, whether it stands above or below them.

Assays:
[1] = Thermodynamic solubility in buffer at 24 h (HPLC of supernatant); type: physicochemical; conditions: for solubility at 24 h: 0.2 m hcl/kcl, as free-base
Description: The solubility of a compound may be assessed by adding a surplus of the compound to a volume of solvent such that some of the compound is not dissolved, then isolating the non-dissolved compound and measuring the amount. The solubility of a compound may alternatively be assessed by adding a surplus of the compound to a volume of solvent such that some of the compound is not dissolved, and then measure the amount of compound in solution. Measuring the amount of compound in solution may be done using any suitable method, such as HPLC, titration, or spectrometry.
The solubility of AP1189 freebase, tosylate salt and fumarate salt were assessed in buffer solutions. An amount of the compound was suspended in buffer and agitated at ambient temperature for 24 hr, before the supernatant was sampled and analysed for the content of AP1189 by HPLC.

[2] = Initial polymorphism assessment: solubility of AP1189 freebase in solvent systems (aliquot addition); type: physicochemical; conditions: ambient, gently heated to ca. 40 °C if solid remained
Method: An initial polymorphism assessment was carried out in order to identify any potential alternate forms. The initial polymorphism assessment was carried out as follows: To ca. 7 mg of freebase Pattern 1 from DCM evaporation the appropriate solvent system was added in aliquots of 50 μL and if solid remained the vial was gently heated to ca. 40 °C to aid dissolution. Solvent addition was continued until the material had fully dissolved or 1 mL of the appropriate solvent system had been added (<10 mg/mL). Anti-solvent (t-BME) was added dropwise (with stirring) at ambient. If the solutions were already present as slurries prior to addition of anti-solvent, no anti-solvent was added. The experiments were temperature cycled between ambient temperature and 40 °C in 4 hour cycles for ca. 24 h with agitation. Slurries were isolated by centrifugation and solutions allowed to evaporate at ambient temperature. XRPD analysis was carried out for the solids which were obtained.

MC3R = conditions: biased dual agonist; cited from earlier work
[3] = test system: MC1R-induced melanogenesis; conditions: cited from earlier work
Ca^2± mobilisation = conditions: alternative pathways; cited from earlier work
ERK1/2-phosphorylation = conditions: alternative pathways; cited from earlier work
[4] = test system: cAMP generation (MC1R and MC3R); conditions: cited from earlier work
MC1R [5] = conditions: biased dual agonist; cited from earlier work
MC1R [6] = conditions: cited from earlier work

solubility at 24 h ([1]; pH 1.29, 0.2 M HCl/KCl, initial pH 2.05 → 1.24, 24 h pH 1.29, input 83* mM (estimated), ambient temperature): > 44.1 mM | solubility at 24 h ([1]; pH 1.54, FaSSGF (Fasted State Simulated Gastric Fluid), initial pH 1.60, 24 h pH 1.54, ambient temperature): 13.9 mM (≈ 4140 µg/mL)
Compound: NC(N)=N/N=C/C=C/c1cccn1-c1ccccc1[N+](=O)[O-] [AP1189 freebase Pattern 1, 2-{3-[1-(2-nitrophenyl)-1H-pyrrol-2-yl]prop-2-en-1-ylidine}hydrazine-1-carboximidamide]
Solubility at pH 4.5 (in words) ([1]; pH 4.5, compared to AP1189 fumarate Pattern 1): high solubility at pH 4.5 compared to test compound AP1189 fumarate Pattern 1

solubility ([2]; Water): < 7000 µg/mL | solubility ([2]; organic solvent or mixture, 2-Methyl THF): ≥ 10000 µg/mL | solubility ([2]; organic solvent or mixture, 2-Propanol): < 7000 µg/mL | solubility ([2]; organic solvent or mixture, 90% 2-Propanol: 10% Water (% v/v) (calculated aw 0.6)): ≥ 10000 µg/mL | solubility ([2]; organic solvent or mixture, 98.5% Ethanol : 1.5% Water (% v/v) (calculated aw 0.2)): ≥ 15000 µg/mL | solubility ([2]; organic solvent or mixture, Acetone): ≥ 49000 µg/mL | solubility ([2]; organic solvent or mixture, Acetonitrile): ≥ 27000 µg/mL | solubility ([2]; organic solvent or mixture, Dichloromethane): < 7000 µg/mL | solubility ([2]; organic solvent or mixture, Dimethylsulfoxide): ≥ 136000 µg/mL | solubility ([2]; organic solvent or mixture, Ethanol): ≥ 13000 µg/mL | solubility ([2]; organic solvent or mixture, Ethyl Acetate): < 7000 µg/mL | solubility ([2]; organic solvent or mixture, Heptane): < 7000 µg/mL | solubility ([2]; organic solvent or mixture, Methanol): ≥ 142000 µg/mL | solubility ([2]; organic solvent or mixture, Methylethyl Ketone): ≥ 17000 µg/mL | solubility ([2]; organic solvent or mixture, Methylisobutyl Ketone): < 7000 µg/mL | solubility ([2]; organic solvent or mixture, Tetrahydrofuran): ≥ 35000 µg/mL | solubility ([2]; organic solvent or mixture, Toluene): < 7000 µg/mL | solubility ([2]; organic solvent or mixture, tert-Butylmethyl ether): < 7000 µg/mL | Solubility at acidic conditions (in words) ([1]; acidic conditions): highly soluble at acidic conditions | Solubility at pH 1.2 (in words) [1]: high solubility at pH 1.2
Compound: NC(N)=N/N=C/C=C/c1cccn1-c1ccccc1[N+](=O)[O-] [AP1189, 2-{3-[1-(2-nitrophenyl)-1H-pyrrol-2-yl]prop-2-en-1-ylidine}hydrazine-1-carboximidamide]
Solubility at pH 1.2 (in words) ([1]; listed as AP1189 free base): high solubility at pH 1.2 compared to the test compound AP1189 fumarate Pattern 1 | agonism at MC3R (MC3R): biased dual agonist at receptors MC1R and MC3R | MC1R-induced melanogenesis [3]: no MC1R-induced melanogenesis | Ca2+ mobilisation (Ca^2± mobilisation): appear to induce alternative pathways including ERK1/2-phosphorylation and Ca^2 mobilisation | ERK1/2-phosphorylation (ERK1/2-phosphorylation): appear to induce alternative pathways including ERK1/2-phosphorylation | canonical cAMP generation [4]: does not provoke canonical cAMP generation | agonism at MC1R (MC1R [5]): biased dual agonist at receptors MC1R and MC3R | binding to MC1R (MC1R [6]): shown to bind the MC1R

solubility at 24 h ([1]; pH 1.29, 0.2 M HCl/KCl, initial pH 1.35 → 1.18, 24 h pH 1.29, input 38 mM, ambient temperature): 10.9 mM
Compound: NC(N)=N/N=C/C=C/c1cccn1-c1ccccc1[N+](=O)[O-] [Fumarate Salt Pattern 1]

solubility at 24 h ([1]; pH 1.26, 0.2 M HCl/KCl, initial pH 1.22, 24 h pH 1.26, input 31 mM, ambient temperature): 0.31 mM | Solubility at low pH (in words) ([1]; low pH, e.g. pH 1.2-1.3 or pH 4.5): low solubility at low pH
Compound: NC(N)=N/N=C/C=C/c1cccn1-c1ccccc1[N+](=O)[O-] [Tosylate Salt Pattern 1, 2-{3-[1-(2-nitrophenyl)-1H-pyrrol-2-yl]prop-2-en-1-ylidine}hydrazine-1-carboximidamide tosylate]
